“And” between values parts separate entries of the source, which are not always exact repeats. Equal entries are not always repeated.
Legend:
[1] = target: Sigma non-opioid intracellular receptor 1 (Cavia porcellus, UniProt Q60492)
[2] = target: T1, Muscarinic acetylcholine receptor M2 (Rattus norvegicus, UniProt P10980)
T1 sequence (P10980 whole entry): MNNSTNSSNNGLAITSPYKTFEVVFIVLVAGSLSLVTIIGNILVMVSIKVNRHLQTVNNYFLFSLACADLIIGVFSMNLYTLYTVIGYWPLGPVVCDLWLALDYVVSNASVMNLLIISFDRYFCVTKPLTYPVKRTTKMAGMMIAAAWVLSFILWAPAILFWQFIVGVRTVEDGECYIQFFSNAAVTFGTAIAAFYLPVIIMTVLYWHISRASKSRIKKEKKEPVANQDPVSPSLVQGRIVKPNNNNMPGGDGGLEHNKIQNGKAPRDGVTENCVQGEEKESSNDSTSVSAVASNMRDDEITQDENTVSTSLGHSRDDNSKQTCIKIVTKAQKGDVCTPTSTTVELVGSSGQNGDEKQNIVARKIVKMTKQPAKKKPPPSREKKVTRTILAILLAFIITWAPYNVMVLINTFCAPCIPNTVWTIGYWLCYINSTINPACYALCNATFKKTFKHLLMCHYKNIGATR

[3] = target: T2, Muscarinic acetylcholine receptor M1 (Rattus norvegicus, UniProt P08482)
T2 sequence (P08482 whole entry): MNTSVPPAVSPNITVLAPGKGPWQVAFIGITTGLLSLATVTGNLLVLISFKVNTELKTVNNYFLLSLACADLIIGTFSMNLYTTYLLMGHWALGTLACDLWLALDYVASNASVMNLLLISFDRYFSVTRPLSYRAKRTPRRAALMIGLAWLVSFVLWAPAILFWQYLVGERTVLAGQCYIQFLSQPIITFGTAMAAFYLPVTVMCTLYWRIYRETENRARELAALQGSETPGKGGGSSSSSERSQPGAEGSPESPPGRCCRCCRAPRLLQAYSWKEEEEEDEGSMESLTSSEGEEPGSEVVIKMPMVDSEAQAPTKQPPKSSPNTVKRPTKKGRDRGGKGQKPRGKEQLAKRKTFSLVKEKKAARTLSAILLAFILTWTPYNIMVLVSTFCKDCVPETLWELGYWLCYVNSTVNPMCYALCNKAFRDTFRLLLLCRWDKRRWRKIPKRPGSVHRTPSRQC

[4] = target: Beta-2 adrenergic receptor (Rattus norvegicus, UniProt P10608)
Beta-2 adrenergic receptor, sequence (P10608 whole entry): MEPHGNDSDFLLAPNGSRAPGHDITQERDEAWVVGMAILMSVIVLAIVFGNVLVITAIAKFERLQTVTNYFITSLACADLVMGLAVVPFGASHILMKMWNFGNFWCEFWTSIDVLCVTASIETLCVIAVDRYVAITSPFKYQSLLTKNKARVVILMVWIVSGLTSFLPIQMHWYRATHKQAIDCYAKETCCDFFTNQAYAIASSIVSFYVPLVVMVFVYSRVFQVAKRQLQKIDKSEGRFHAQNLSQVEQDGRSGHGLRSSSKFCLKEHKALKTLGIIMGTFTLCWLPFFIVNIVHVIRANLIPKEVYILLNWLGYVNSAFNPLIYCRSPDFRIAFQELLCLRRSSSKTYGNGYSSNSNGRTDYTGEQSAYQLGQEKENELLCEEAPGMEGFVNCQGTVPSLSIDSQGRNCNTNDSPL

D(1A) dopamine receptor = D(1A) dopamine receptor (Macaca mulatta, UniProt O77680)
D(1A) dopamine receptor, sequence (O77680 whole entry): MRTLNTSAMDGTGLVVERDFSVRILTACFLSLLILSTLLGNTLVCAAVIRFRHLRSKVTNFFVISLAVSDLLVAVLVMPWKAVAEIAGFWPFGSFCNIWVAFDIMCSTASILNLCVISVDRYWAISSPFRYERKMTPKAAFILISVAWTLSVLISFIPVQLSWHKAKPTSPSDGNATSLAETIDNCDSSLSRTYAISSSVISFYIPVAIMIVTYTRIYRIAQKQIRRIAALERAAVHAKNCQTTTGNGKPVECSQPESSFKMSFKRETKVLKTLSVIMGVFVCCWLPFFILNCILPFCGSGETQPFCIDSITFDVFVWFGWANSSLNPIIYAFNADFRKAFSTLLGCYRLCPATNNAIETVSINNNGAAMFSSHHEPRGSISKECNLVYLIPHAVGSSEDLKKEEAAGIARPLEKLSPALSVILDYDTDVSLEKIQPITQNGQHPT

D(2) dopamine receptor = D(2) dopamine receptor (Sus scrofa, UniProt F1SM69)
D(2) dopamine receptor, sequence (F1SM69 whole entry): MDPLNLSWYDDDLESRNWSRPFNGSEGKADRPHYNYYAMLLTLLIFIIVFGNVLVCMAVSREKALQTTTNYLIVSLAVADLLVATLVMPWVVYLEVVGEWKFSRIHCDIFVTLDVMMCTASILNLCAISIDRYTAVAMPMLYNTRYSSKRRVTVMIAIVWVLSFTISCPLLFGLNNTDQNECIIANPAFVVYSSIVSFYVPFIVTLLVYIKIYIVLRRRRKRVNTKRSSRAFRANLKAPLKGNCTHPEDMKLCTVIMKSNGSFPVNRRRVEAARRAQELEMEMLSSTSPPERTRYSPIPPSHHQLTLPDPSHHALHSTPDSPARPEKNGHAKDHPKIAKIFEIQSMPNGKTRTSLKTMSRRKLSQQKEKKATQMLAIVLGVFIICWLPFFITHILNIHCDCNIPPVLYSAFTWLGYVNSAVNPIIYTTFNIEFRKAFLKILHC

[5] = target: 5-hydroxytryptamine receptor 4 (Cavia porcellus, UniProt O70528)
5-hydroxytryptamine receptor 4, sequence (O70528 whole entry): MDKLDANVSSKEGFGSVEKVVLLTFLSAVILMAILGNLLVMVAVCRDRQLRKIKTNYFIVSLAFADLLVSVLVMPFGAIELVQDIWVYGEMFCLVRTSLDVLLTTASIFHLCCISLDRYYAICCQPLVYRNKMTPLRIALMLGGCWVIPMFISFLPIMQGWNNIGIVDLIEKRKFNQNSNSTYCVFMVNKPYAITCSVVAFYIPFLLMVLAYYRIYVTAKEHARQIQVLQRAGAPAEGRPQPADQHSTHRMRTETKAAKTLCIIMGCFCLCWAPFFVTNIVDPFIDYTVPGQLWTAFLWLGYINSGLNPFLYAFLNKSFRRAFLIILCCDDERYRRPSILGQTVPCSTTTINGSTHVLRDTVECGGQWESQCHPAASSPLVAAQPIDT

[6] = target: Beta-1 adrenergic receptor (Rattus norvegicus, UniProt P18090)
Beta-1 adrenergic receptor, sequence (P18090 whole entry): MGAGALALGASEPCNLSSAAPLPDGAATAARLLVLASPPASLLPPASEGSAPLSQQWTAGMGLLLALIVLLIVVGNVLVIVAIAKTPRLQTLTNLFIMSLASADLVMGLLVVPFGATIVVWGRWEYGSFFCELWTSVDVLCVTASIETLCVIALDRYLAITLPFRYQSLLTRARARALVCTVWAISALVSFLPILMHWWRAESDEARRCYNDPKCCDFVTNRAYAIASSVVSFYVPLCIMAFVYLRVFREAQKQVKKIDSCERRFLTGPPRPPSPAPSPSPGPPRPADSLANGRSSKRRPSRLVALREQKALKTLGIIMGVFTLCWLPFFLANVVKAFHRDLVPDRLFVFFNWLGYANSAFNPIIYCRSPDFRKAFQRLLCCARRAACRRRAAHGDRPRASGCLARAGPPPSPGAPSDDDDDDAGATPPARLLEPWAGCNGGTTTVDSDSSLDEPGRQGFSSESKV

[7] = target: T3, 5-hydroxytryptamine receptor 2C (Rattus norvegicus, UniProt P08909)
T3 sequence (P08909 whole entry): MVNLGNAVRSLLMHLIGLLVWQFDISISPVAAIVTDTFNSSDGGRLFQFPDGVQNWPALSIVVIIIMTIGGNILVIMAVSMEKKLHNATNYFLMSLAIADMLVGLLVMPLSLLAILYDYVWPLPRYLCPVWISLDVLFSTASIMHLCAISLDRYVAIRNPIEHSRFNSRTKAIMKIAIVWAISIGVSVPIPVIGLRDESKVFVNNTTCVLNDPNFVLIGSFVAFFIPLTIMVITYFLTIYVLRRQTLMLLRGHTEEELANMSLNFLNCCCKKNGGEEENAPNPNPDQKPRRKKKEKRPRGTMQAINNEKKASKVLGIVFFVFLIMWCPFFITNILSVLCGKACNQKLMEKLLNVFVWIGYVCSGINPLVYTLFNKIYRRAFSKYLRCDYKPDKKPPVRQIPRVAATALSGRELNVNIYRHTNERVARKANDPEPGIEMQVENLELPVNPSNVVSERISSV

[8] = target: T4, 5-hydroxytryptamine receptor 1A (Rattus norvegicus, UniProt P19327)
T4 sequence (P19327 whole entry): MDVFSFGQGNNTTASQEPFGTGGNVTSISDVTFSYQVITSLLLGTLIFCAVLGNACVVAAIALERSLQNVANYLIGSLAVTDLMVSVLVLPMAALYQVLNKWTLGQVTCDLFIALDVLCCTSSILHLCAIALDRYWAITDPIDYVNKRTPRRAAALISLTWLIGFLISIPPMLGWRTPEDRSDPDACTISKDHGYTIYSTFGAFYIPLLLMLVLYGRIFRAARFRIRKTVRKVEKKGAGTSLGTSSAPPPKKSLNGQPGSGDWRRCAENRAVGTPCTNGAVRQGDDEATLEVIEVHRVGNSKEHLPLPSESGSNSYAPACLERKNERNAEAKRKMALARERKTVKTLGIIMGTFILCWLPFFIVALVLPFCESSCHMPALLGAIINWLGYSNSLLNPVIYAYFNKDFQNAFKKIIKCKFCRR

[9] = target: 5-hydroxytryptamine receptor 2A (Rattus norvegicus, UniProt P14842)
5-hydroxytryptamine receptor 2A, sequence (P14842 whole entry): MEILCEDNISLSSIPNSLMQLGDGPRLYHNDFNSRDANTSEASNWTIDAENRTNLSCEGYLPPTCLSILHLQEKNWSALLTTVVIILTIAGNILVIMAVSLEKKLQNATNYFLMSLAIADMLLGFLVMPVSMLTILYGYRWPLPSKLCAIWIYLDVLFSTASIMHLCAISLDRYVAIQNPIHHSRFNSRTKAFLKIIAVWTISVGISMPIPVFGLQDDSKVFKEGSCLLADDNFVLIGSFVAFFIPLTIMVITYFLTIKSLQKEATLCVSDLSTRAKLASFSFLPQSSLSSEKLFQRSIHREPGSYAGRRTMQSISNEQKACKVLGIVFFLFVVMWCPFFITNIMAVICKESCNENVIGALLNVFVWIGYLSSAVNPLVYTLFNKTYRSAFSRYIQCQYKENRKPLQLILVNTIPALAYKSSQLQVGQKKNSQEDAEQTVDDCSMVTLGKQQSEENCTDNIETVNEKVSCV

[10] = target: T5, 5-hydroxytryptamine receptor 3A (Rattus norvegicus, UniProt P35563)
T5 sequence (P35563 whole entry): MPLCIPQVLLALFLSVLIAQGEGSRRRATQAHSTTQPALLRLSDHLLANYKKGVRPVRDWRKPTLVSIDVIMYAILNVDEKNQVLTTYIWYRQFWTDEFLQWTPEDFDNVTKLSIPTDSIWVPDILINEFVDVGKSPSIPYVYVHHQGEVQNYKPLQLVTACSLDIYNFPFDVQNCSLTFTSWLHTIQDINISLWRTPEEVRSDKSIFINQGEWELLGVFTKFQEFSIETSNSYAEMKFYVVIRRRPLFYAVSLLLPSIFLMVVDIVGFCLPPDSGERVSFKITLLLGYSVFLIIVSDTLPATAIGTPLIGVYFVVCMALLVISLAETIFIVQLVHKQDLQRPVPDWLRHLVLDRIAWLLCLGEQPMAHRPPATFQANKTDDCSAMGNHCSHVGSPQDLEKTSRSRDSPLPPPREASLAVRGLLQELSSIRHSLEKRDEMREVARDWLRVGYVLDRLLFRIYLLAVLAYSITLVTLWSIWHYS

[11] = target: T6, Alpha-1A adrenergic receptor (Rattus norvegicus, UniProt P43140)
T6 sequence (P43140 whole entry): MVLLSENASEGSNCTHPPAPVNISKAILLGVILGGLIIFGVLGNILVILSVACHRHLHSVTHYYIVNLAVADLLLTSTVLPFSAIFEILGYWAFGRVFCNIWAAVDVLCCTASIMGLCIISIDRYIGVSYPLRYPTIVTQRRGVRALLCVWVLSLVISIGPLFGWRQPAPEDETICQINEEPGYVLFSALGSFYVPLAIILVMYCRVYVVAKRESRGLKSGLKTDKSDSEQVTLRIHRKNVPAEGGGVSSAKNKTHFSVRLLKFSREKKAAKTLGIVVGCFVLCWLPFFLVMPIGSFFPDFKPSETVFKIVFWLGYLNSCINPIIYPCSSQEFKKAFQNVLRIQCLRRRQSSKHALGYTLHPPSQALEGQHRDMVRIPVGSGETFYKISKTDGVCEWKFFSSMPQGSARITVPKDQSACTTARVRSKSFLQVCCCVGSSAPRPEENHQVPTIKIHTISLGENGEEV

[12] = target: T7, Alpha-2A adrenergic receptor [16-465] (Rattus norvegicus, UniProt P22909)
T7 construct: 16-465
T7 sequence (P22909 whole entry): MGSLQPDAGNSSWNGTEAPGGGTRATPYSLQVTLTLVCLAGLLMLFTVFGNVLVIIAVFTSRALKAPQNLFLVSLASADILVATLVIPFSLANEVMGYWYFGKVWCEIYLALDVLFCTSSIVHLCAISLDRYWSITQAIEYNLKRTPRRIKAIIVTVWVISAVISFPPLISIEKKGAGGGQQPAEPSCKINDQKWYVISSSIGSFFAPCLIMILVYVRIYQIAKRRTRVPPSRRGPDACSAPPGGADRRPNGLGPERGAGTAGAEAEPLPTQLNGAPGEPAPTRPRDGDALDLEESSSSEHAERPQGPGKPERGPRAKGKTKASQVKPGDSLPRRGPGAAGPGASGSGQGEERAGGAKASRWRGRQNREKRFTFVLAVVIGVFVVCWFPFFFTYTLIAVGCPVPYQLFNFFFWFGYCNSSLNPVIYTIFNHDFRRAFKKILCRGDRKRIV

[13] = target: T8, Alpha-2B adrenergic receptor (Rattus norvegicus, UniProt P19328)
T8 sequence (P19328 whole entry): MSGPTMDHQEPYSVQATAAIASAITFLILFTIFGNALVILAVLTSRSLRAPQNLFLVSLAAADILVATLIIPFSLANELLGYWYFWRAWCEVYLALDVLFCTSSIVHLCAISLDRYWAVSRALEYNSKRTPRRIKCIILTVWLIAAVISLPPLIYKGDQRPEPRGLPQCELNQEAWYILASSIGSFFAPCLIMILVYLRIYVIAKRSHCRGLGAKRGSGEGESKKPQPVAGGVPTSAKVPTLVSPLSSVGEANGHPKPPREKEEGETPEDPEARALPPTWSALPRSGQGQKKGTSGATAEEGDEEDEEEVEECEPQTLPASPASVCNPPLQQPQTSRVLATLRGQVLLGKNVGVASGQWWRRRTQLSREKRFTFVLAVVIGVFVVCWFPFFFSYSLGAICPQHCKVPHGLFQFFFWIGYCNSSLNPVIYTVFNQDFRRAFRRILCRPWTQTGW

[14] = target: T9, Alpha-1B adrenergic receptor (Rattus norvegicus, UniProt P15823)
T9 sequence (P15823 whole entry): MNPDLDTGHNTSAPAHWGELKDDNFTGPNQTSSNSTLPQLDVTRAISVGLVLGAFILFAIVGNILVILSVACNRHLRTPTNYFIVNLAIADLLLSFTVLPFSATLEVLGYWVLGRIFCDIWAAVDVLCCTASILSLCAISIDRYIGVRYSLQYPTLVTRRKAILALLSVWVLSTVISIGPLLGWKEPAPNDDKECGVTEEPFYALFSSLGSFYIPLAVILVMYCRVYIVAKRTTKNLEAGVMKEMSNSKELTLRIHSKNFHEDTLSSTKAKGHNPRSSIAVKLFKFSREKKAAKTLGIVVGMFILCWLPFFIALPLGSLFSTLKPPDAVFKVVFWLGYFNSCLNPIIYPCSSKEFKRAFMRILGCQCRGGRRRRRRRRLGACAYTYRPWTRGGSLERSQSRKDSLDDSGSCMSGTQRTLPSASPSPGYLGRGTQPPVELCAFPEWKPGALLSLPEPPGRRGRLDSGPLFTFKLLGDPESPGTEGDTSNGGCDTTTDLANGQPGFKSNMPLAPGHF

Sigma non-opioid intracellular receptor 1, sequence (Q60492 whole entry): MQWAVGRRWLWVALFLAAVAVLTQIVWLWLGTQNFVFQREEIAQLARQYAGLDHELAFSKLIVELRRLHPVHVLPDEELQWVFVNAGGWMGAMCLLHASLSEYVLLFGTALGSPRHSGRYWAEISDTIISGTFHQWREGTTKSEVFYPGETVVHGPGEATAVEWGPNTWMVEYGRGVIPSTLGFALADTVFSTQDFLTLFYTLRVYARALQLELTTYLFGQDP

For `COc1cc(N)c(Cl)cc1C(=O)CCC1CCN(CCNS(C)(=O)=O)CC1` [CAS_133075], the Ki [1] was 12.6 nM and 50.1 nM, the Ki [2] was over 10 µM and the Ki [3] was over 10 µM. It also gave a Ki [4] of over 10 µM, a Ki (D(1A) dopamine receptor) of over 10 µM and a Ki (D(2) dopamine receptor) of over 10 µM. It also gave a Ki [5] of 1.58 nM, a Ki [6] of over 10 µM and a Ki [7] of 2000 nM. For the same compound, the Ki [8] was 2000 nM, the Ki [9] was 1000 nM and the Ki [10] was 2510 nM and 1260 nM. It also gave a Ki [11] of 398 nM, a Ki [12] of over 10 µM and a Ki [13] of over 10 µM. It also gave a Ki [14] of over 10000 nM.

In the case of `CCCCN1CCC(CCC(=O)c2cc(Cl)c(N)cc2OC)CC1` [CAS_183782], the Ki [1] is reported as 1.25 nM and 10 nM, the Ki [2] is reported as 5.01 µM and the Ki [3] is reported as 6.31 µM. For the same compound, the Ki [4] was over 10 µM, the Ki (D(1A) dopamine receptor) was over 10 µM and the Ki (D(2) dopamine receptor) was over 10 µM. It also gave a Ki [5] of 1.99 nM, a Ki [6] of over 10 µM and a Ki [7] of 794 nM. For the same compound, the Ki [9] was 501 nM, the Ki [10] was 398 nM and 1260 nM and the Ki [11] was 200 nM. The Ki [12] was over 10 µM, the Ki [13] was over 10 µM and the Ki [14] was 1260 nM.
